What was measured:
[1] = orally administered as homogeneous liquid suspension, relative to equivalent intravenous dose of propofol; cited from earlier work
[2] = oral dosing, rats; cited from earlier work
[3] = system: rats; experiment: Acute toxicity study, single oral dose in rats; type: in vivo
Protocol: Acute toxicity studies in rats were undertaken to assess the tolerance of a single oral dose of compound (2) formulated in water. […] Complete recovery from hypoactivity, sedation, and anesthesia occurred in all rats within about 8 hours after dose. Doses above about 1552 mg-eq/kg (about 800 mg-eq/kg of propofol) were not tested.

[4] = system: male rats; experiment: Multiple dose study in rats (five days, once a day); type: in vivo; details: oral gavage once a day for five days, 49 to 97 mg-eq/kg
Protocol: Multiple dose studies in rats were performed by orally administering compound (2) formulated in water to groups of male rats at doses of 49 mg-eq/kg to 97 mg-eq/kg for a period of five days, by oral gavages administered once a day.

[5] = system: male beagle dogs; experiment: Acute toxicity study, single oral dose in dogs; type: in vivo
Protocol: Acute toxicity studies were also performed by orally administering a single dose of compound (2) formulated in water to groups of male beagle dogs at doses from about 25 mg-eq/kg to about 150 mg-eq/kg.

[6] = cited from earlier work
[7] = rats, single oral dose about 49 to about 388 mg-eq/kg
[8] = rats, single oral dose about 582 to about 970 mg-eq/kg
[9] = rats, single oral dose about 1164 to about 1552 mg-eq/kg

## CC(C)c1cccc(C(C)C)c1O [propofol, 2,6-diisopropylphenol]
[1]
  oral bioavailability: less than 5%
[2]
  administered drug undergoing first pass metabolism: approximately 90%

## CC(C)c1cccc(C(C)C)c1OC(=O)OC[C@H](N)C(=O)O (stereo in doubt) [Compound (2), 2-amino-3-(2,6-diisopropyl-phenoxycarbonyloxy)-propanoic acid]
[3]; all rats, single oral dose
  complete recovery from hypoactivity, sedation, and anesthesia, time after dose: ≤ 8 h
[3]; rats, formulated in water, about 49 to about 1552 mg-eq/kg of administered compound
  tolerance of a single oral dose: well tolerated
[3]; [7]
  onset of transient hypoactivity after dose: ≤ 30 min
  transient hypoactivity maintained, time post dose: up to 4 hours
[3]; [8]
  onset of sedation after dose: ≤ 1.5 h
  sedation lasted, time post dose: up to 4 hours
[3]; [9]
  anesthesia lasted, time post dose: up to 2 hours
  onset of anesthesia after dose: ≤ 1 h
[4]
  adverse effects: No adverse effects were observed
  sedation or anesthesia: No sedation or anesthesia was observed
  tolerance of multiple doses: well tolerated
[5]; formulated in water, about 25 to about 150 mg-eq/kg
  tolerance of a single oral dose: well tolerated
[5]; single oral dose about 25 to about 150 mg-eq/kg
  sedation or anesthesia: No sedation or anesthesia was observed

## CC(C)c1cccc(C(C)C)c1OCOP(=O)(O)O [O-phosphonooxymethyl propofol]
[6]; oral administration
  time to maximum propofol concentration: about 30 minutes
[6]; rats, relative to equivalent intravenous dose of propofol
  propofol oral bioavailability: 22.2%

Reference: patent publication US20090076141A1, “Use of Propofol Prodrugs for Treating Neuropathic Pain” (XenoPort, Inc., priority 2007, published 2009)
